Usually GI50 stands for the concentration that inhibits growth by half. Usually AC50 stands for the concentration at which the activity in the assay is half-maximal. One may read the IC50 as the midpoint of a concentration-inhibition curve.

A value given as a limit tells only on which side of the number the result lay.

Common to all, as to assay type: cell-based
For test [1], the system named is SH-SY5Y (human neuroblastoma) cells. The experiment in a line: Cell viability, Cell Titer Glo 2.0 assay. Particulars: read-out: Viability SHSY5Y.3 GI50. A digest of the protocol:
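Viability was read by CellTiter-Glo 2.0 luminescence after a 72-hour compound exposure at 37° C. under 5% CO2. Cells were in IMDM plus 10% FBS containing 0.1% DMSO, and medium-only wells gave the blank.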

For test [2], the system named is HTT mRNA. In words: Splicing RT-qPCR assay (THP), Table 2A. Conditions: Table 2A (THP); for AC50: AJ mRNA increase, read-out: HTT AJ (increase in alternative junction mRNA, AC50); for IC50: CJ mRNA decrease, read-out: HTT CJ (decrease in canonical junction mRNA, IC50).
Test [3] has as its system MYB mRNA. The experiment in a line: Splicing RT-qPCR assay (THP), Table 2A. Conditions: Table 2A (THP); for AC50: AJ mRNA increase, read-out: MYB AJ (increase in alternative junction mRNA, AC50); for IC50: CJ mRNA decrease, read-out: MYB CJ (decrease in canonical junction mRNA, IC50). On the technique in general: Real-time PCR tracks product formation cycle by cycle.
Test [4] has as its system MYB mRNA. In words: Splicing RT-qPCR assay, canonical (CJ) and alternative (AJ) junction mRNA, K562 cells. Particulars: Homo sapiens, K562.3 cells, 24 hours; for AC50: read-out: MYB AJ (AC50, increase in AJ mRNA); for IC50: read-out: MYB CJ (IC50, decrease in CJ mRNA). A digest of the protocol: (§1)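 Readout is one-step RT-qPCR of canonical and alternative exon junctions, housekeeper-normalized (GAPDH or GUSB), ΔΔCt against DMSO giving RQ and percentage response over set ΔCt assay windows. Compounds dosed 24 h to K562 cells, 11 points, 3-fold, max 10 uM, DMSO ≤0.25%.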

The subject of test [5] is HTT mRNA. The test is described as above. Conditions: Homo sapiens, K562.3 cells, 24 hours; for AC50: read-out: HTT AJ (AC50, increase in AJ mRNA); for IC50: read-out: HTT CJ (IC50, decrease in CJ mRNA). The method, boiled down: as §1

For the compound `CN[C@H]1CCN(c2ccc(C(=O)Nc3cc(F)c4nc(C)cn4c3)c3nnn(C)c23)C1` [Compound 166, (S)-N-(8-fluoro-2-methylimidazo-[1,2-a]pyridin-6-yl)-1-methyl-7-(3-(methylamino)pyrrolidin-1-yl)-1H-benzo[d]-[1,2,3]triazole-4-carboxamide], the GI50 in test [1] was 1000 to 10000 nM. The AC50 in the test with HTT mRNA [2] is greater than 10000 nM; with MYB mRNA [3] it was 100 to 1000 nM; with MYB mRNA [4] it was 100 to 1000 nM; in the test with HTT mRNA [5], greater than 10000 nM. Further, the IC50 is greater than 10000 nM with HTT mRNA [2], 1000 to 10000 nM in the test with MYB mRNA [3], 100 to 1000 nM with MYB mRNA [4] and greater than 10000 nM in the test on HTT mRNA [5].
On to `CCNC1CCN(c2ccc(C(=O)Nc3cc(OC)c4nc(C)cn4c3)c3nn(C)cc23)CC1` [Compound 175, 4-(4-(ethylamino)piperidin-1-yl)-N-(8-methoxy-2-methyl-imidazo-[1,2-a]pyridin-6-yl)-2-methyl-2H-indazole-7-carboxamide], for which the GI50 in test [1] is 1000 to 10000 nM. Moreover, the AC50 was 1000 to 10000 nM with HTT mRNA [2], less than 100 nM in the test with MYB mRNA [3], 100 to 1000 nM in the test on MYB mRNA [4] and 1000 to 10000 nM in the test with HTT mRNA [5]. Besides, the IC50 with HTT mRNA [2] was 1000 to 10000 nM; in the test with MYB mRNA [3], less than 100 nM; in the test with MYB mRNA [4] it was 100 to 1000 nM; with HTT mRNA [5] it was 100 to 1000 nM.
Consider `CCNC1CCN(c2ccc(C(=O)Nc3ccc4nc(C)cn4c3)c3nn(C)cc23)CC1` [Compound 176, 4-[4-(ethylamino)-1-piperidyl]-2-methyl-N-(2-methylimidazo[1,2-a]pyridin-6-yl)-indazole-7-carboxamide], for which, in test [1], the GI50 is 100 to 1000 nM. Also, the AC50 in the test on HTT mRNA [2] was 1000 to 10000 nM; with MYB mRNA [3], 100 to 1000 nM; in the test on MYB mRNA [4] it was 100 to 1000 nM; in the test on HTT mRNA [5], greater than 10000 nM. In addition, the IC50 with HTT mRNA [2] is greater than 10000 nM; in the test on MYB mRNA [3] it was 100 to 1000 nM; in the test with MYB mRNA [4] it was 100 to 1000 nM; in the test on HTT mRNA [5], 1000 to 10000 nM.
`CCNC1CCN(c2ccc(C(=O)Nc3cc(F)c4nc(C(C)C)cn4c3)c3nn(C)cc23)CC1` [Compound 177, 4-[4-(ethylamino)-1-piperidyl]-N-(8-fluoro-2-isopropyl-imidazo[1,2-a]pyridin-6-yl)-2-methyl-indazole-7-carboxamide]: the GI50 in test [1] lay in the range of 100 to 1000 nM. For the same compound, the AC50 in the test with HTT mRNA [2], in the test with MYB mRNA [3], with MYB mRNA [4] and in the test with HTT mRNA [5] was greater than 10000 nM in each case. For the same compound, the IC50 in the test on HTT mRNA [2] is greater than 10000 nM; in the test on MYB mRNA [3], 1000 to 10000 nM; in the test with MYB mRNA [4], greater than 10000 nM; in the test on HTT mRNA [5] it was 1000 to 10000 nM.
On to `CCNC1CCN(c2ccc(C(=O)Nc3cc4cn(C)nc4cc3OC)c3[nH]ccc23)CC1` [Compound 178, 4-[4-(ethylamino)-1-piperidyl]-N-(6-methoxy-2-methyl-indazol-5-yl)-1H-indole-7-carboxamide], for which, in test [1], the GI50 lay in the range of 1000 to 10000 nM. Moreover, the AC50 in the test with HTT mRNA [2], in the test with MYB mRNA [3], with MYB mRNA [4] and in the test on HTT mRNA [5] was greater than 10000 nM in each case. Further, the half-maximal inhibitory concentration (IC50) in the test on HTT mRNA [2], with MYB mRNA [3], with MYB mRNA [4] and in the test on HTT mRNA [5] was greater than 10000 nM each time.
Consider `CNC1(C)CCN(c2cc(F)c(C(=O)Nc3cc(F)c4nc(C)cn4c3)c3nn(C)cc23)CC1` [Compound 179, 6-fluoro-N-(8-fluoro-2-methyl-imidazo[1,2-a]pyridin-6-yl)-2-methyl-4-[4-methyl-4-(methylamino)-1-piperidyl]indazole-7-carboxamide], for which, in test [1], the GI50 was less than 100 nM. The AC50 in the test on HTT mRNA [2], with MYB mRNA [3], in the test on MYB mRNA [4] and in the test on HTT mRNA [5] was less than 100 nM in each case. In addition, the IC50 in the test on HTT mRNA [2], in the test with MYB mRNA [3], in the test on MYB mRNA [4] and with HTT mRNA [5] was less than 100 nM each time.
Consider `CNC1(C)CCN(c2cc(F)c(C(=O)Nc3cn4cc(C)nc4c(F)c3OC)c3nn(C)cc23)CC1` [Compound 180, 6-fluoro-N-(8-fluoro-7-methoxy-2-methyl-imidazo[1,2-a]pyridin-6-yl)-2-methyl-4-[4-methyl-4-(methylamino)-1-piperidyl]indazole-7-carboxamide], for which the GI50 in test [1] was less than 100 nM. Besides, the AC50 in the test with HTT mRNA [2], in the test on MYB mRNA [3], in the test on MYB mRNA [4] and in the test with HTT mRNA [5] was less than 100 nM each time. Further, the half-inhibitory concentration (IC50) in the test on HTT mRNA [2], in the test with MYB mRNA [3], in the test with MYB mRNA [4] and with HTT mRNA [5] was less than 100 nM in each case.
With `CCNC1CCN(c2ccc(C(=O)Nc3cn4cc(C)nc(C)c4n3)c3nn(C)cc23)CC1` [Compound 181, N-(6,8-dimethylimidazo [1,2-a]pyrazin-2-yl)-4-[4-(ethylamino)-1-piperidyl]-2-methyl-indazole-7-carboxamide], in test [1], the GI50 lay in the range of 100 to 1000 nM. Also, the AC50 in the test on HTT mRNA [2] fell in the range of 1000 to 10000 nM; in the test with MYB mRNA [3] it was 100 to 1000 nM; with MYB mRNA [4] it was 100 to 1000 nM; in the test with HTT mRNA [5], 100 to 1000 nM. Moreover, the IC50 fell in the range of 1000 to 10000 nM in the test on HTT mRNA [2], 100 to 1000 nM with MYB mRNA [3], 100 to 1000 nM with MYB mRNA [4] and 100 to 1000 nM in the test on HTT mRNA [5].
With `CCNC1CCN(c2ccc(C(=O)Nc3cc(F)c4nn(C)cc4c3)c3nn(C)cc23)CC1` [Compound 182, 4-(4-(ethylamino)piperidin-1-yl)-N-(7-fluoro-2-methyl-2H-indazol-5-yl)-2-methyl-2H-indazole-7-carboxamide], in test [1], the GI50 was 100 to 1000 nM. In addition, the AC50 is 1000 to 10000 nM in the test on HTT mRNA [2], less than 100 nM in the test with MYB mRNA [3], 100 to 1000 nM with MYB mRNA [4] and 1000 to 10000 nM with HTT mRNA [5]. For the same compound, the IC50 in the test on HTT mRNA [2] is 1000 to 10000 nM; in the test on MYB mRNA [3], less than 100 nM; in the test with MYB mRNA [4], less than 100 nM; in the test on HTT mRNA [5] it was 1000 to 10000 nM.
Turning to `Cc1cn2cc(NC(=O)c3ccc(N4CCC(NC5CC5)CC4)c4cc(C)oc34)cc(F)c2n1` [Compound 185, 4-[4-(cyclopropyl-amino)-1-piperidyl]-N-(8-fluoro-2-methyl-imidazo[1,2-a]pyridin-6-yl)-2-methyl-benzofuran-7-carboxamide], the GI50 in test [1] lay within 100 to 1000 nM. Besides, the AC50 in the test with HTT mRNA [2] was 1000 to 10000 nM; in the test with MYB mRNA [3], less than 100 nM; with MYB mRNA [4] it was 100 to 1000 nM; in the test on HTT mRNA [5] it was 1000 to 10000 nM. The IC50 with HTT mRNA [2] was in the range of 1000 to 10000 nM; in the test on MYB mRNA [3] it was 100 to 1000 nM; in the test with MYB mRNA [4] it was 100 to 1000 nM; in the test on HTT mRNA [5], 1000 to 10000 nM.
Consider `CCNC1CCN(c2ccc(C(=O)Nc3cc(C)c4nc(C)cn4n3)c3nn(C)cc23)CC1` [Compound 186, N-(2,8-dimethylimidazo [1,2-b]pyridazin-6-yl)-4-[4-(ethylamino)-1-piperidyl]-2-methyl-indazole-7-carboxamide], for which the GI50 in test [1] was 100 to 1000 nM. In addition, the AC50 with HTT mRNA [2], in the test with MYB mRNA [3], in the test on MYB mRNA [4] and in the test on HTT mRNA [5] was 100 to 1000 nM each time. The IC50 in the test with HTT mRNA [2], in the test with MYB mRNA [3], in the test on MYB mRNA [4] and in the test with HTT mRNA [5] was 100 to 1000 nM in each case.
In the case of `Cc1cn2nc(NC(=O)c3ccc(N4CCC(NC5CC5)CC4)c4cn(C)nc34)cc(C)c2n1` [Compound 187, 4-[4-(cyclopropylamino)-1-piperidyl]-N-(2,8-dimethylimidazo-[1,2-b]pyridazin-6-yl)-2-methyl-indazole-7-carboxamide], the GI50 in test [1] was 100 to 1000 nM. The AC50 in the test with HTT mRNA [2], in the test on MYB mRNA [3], in the test with MYB mRNA [4] and in the test with HTT mRNA [5] was 100 to 1000 nM in each case. The IC50 in the test on HTT mRNA [2], in the test with MYB mRNA [3], in the test with MYB mRNA [4] and in the test on HTT mRNA [5] was 100 to 1000 nM in each case.
In the case of `CCNC1CCN(c2ccc(C(=O)Nc3cc(F)c4nc(C)c(C)n4c3)c3nn(C)cc23)CC1` [Compound 188, 4-[4-(ethylamino)-1-piperidyl]-N-(8-fluoro-2,3-dimethyl-imidazo[1,2-a]pyridin-6-yl)-2-methyl-indazole-7-carboxamide], the GI50 in test [1] was in the range of 1000 to 10000 nM. Moreover, the AC50 with HTT mRNA [2], with MYB mRNA [3], with MYB mRNA [4] and in the test with HTT mRNA [5] was greater than 10000 nM in each case. The IC50 with HTT mRNA [2], in the test on MYB mRNA [3], with MYB mRNA [4] and with HTT mRNA [5] was greater than 10000 nM in each case.
Turning to `Cc1nc2c(F)cc(NC(=O)c3ccc(N4CCC(NC5CC5)CC4)c4cn(C)nc34)cn2c1C` [Compound 189, 4-[4-(cyclopropylamino)-1-piperidyl]-N-(8-fluoro-2,3-dimethyl-imidazo[1,2-a]pyridin-6-yl)-2-methyl-indazole-7-carboxamide], the GI50 in test [1] is 100 to 1000 nM. In addition, the AC50 in the test on HTT mRNA [2] is 100 to 1000 nM; in the test on MYB mRNA [3] it was greater than 10000 nM; in the test on MYB mRNA [4], greater than 10000 nM; in the test with HTT mRNA [5], greater than 10000 nM. The IC50 in the test on HTT mRNA [2], with MYB mRNA [3], in the test with MYB mRNA [4] and in the test with HTT mRNA [5] was greater than 10000 nM in each case.
